# Source: patent US5618948A, “Process for preparing an enantiomer of a carbazole derivative” (SmithKline Beecham p.l.c., priority 1995, dated 1997)
# Target: T1, 5-HT1 -like Receptor (Oryctolagus cuniculus, UniProt P49144)
# T1 construct: the basilar artery removed with the aid of a dissecting microscope; from tissue; host or cells: rabbit basilar artery ring segments, endothelium removed
# Test: 5-HT1-like Receptor Screen, rabbit isolated basilar artery (isometric tension, cumulative concentration-effect curves)
# Format: cell-based
# Settings: endothelium removed, in presence of ascorbate, indomethacin, cocaine, ketanserin and prazosin
# Description: 5-HT1 -like Receptor Screen
# Experiments were performed in intracranial arteries from rabbit isolated basilar artery in a similar method to that described previously (Parsons and Whalley, 1989, Eur J Pharmacol 174, 189-196.)
# In brief, rabbits were killed by overdose with anaesthetic (sodium pentobarbitone). The whole brain was quickly removed and immersed in ice cold modified Kreb's solution and the basilar artery removed with the aid of a dissecting microscope. The Krebs solution was of the following composition (mM) Na^+ (120); K^+ (5); Ca^2+ (2.25)Mg^2+(0.5); Cl^- (98.5); SO4^2- (1); ETDA (0.04), equilibrated with 95% O2 /5% CO2. The endothelium was removed by a gentle rubbing of the lumen with a fine metal wire. Arteries were then cut into ring segments (ca 4-5 mm wide) and set up for recording of isometric tension in 50 ml tissue baths in modified Krebs solution with the additional supplement of (mM); […] (20); fumarate (10); pyruvate (5); L-glutamate (5) and glucose (10). The arteries were then placed under a resting force of 3-4 mN maintained at 37° C. and the solution bubbled with 95% O2 /5% CO2.
# After tests for initial reactivity with 90 mM KCl depolarising solution and for lack of acetylcholine-induced relaxation of 5-HT ([…]) precontraction, cumulative concentration-effect curves ([…]) to 5-HT were constructed in the presence of ascorbate […], cocaine […], indomethacin […], ketanserin […] and prazosin […].
# Following a 45-60 min wash period, cumulative concentration-effect curves to the test compounds or 5-HT (as a time match control) were constructed in the presence of ascorbate, indomethacin, cocaine, ketanserin and prazosin.
# R-(+)-6-carboxamido-3-N-methylamino-1,2,3,4-tetrahydrocarbazole; (compound A)
# S-(-)-6-carboxamido-3-N-methylamino-1,2,3,4-tetrahydrocarbazole; (compound B)
# R-(+)-6-carboxamido-3-N-ethylamino-1,2,3,4-tetrahydrocarbazole; (compound C)
# T1 sequence (P49144 whole entry): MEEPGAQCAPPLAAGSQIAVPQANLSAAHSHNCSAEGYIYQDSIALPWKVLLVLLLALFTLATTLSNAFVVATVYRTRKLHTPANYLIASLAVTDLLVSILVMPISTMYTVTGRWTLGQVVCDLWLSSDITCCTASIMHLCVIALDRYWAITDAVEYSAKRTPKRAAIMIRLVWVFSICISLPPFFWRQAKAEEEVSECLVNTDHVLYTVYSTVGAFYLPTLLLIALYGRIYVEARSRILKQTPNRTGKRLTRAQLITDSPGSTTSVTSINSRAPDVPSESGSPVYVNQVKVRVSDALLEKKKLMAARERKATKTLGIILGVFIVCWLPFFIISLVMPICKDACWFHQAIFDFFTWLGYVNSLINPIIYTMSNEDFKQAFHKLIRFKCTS
row,EC50 [µM],SMILES
1,0.03,"CN[C@@H]1CCc2[nH]c3ccc(C(N)=O)cc3c2C1 [Compound A, R-(+)-6-carboxamido-3-N-methylamino-1,2,3,4-tetrahydrocarbazole]"
2,> 2,"CN[C@H]1CCc2[nH]c3ccc(C(N)=O)cc3c2C1 [Compound B, S-(-)-6-carboxamido-3-N-methylamino-1,2,3,4-tetrahydrocarbazole]"

row,SMILES,EC50 [µM]
1,"CCN[C@@H]1CCc2[nH]c3ccc(C(N)=O)cc3c2C1 [Compound C, R-(+)-6-carboxamido-3-N-ethylamino-1,2,3,4-tetrahydrocarbazole]",0.16
